From patent publication US9464084B2, “P2X7 modulators” (Janssen Pharmaceutica NV, priority 2013, dated 2016)
Counter-ions that a name gives are not always drawn.

How the values were obtained:
P2X7 [1] = target: T1, P2X7 (Homo sapiens (Human), UniProt Q99572); test: P2X7 antagonism in human PBMCs (LPS + Bz-ATP induced IL-1β release, ELISA); type: cell-based; conditions: LPS 30 ng/ml, Bz-ATP 0.5 mM; for PBMC 10 μM (% control): compound 10 μM; for PBMC 1 μM (% control): compound 1 μM;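 for all read-outs here: PBMCs from donor human blood, with a further 1.5 h incubation of the cells in the assay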
T1 sequence (Q99572 whole entry): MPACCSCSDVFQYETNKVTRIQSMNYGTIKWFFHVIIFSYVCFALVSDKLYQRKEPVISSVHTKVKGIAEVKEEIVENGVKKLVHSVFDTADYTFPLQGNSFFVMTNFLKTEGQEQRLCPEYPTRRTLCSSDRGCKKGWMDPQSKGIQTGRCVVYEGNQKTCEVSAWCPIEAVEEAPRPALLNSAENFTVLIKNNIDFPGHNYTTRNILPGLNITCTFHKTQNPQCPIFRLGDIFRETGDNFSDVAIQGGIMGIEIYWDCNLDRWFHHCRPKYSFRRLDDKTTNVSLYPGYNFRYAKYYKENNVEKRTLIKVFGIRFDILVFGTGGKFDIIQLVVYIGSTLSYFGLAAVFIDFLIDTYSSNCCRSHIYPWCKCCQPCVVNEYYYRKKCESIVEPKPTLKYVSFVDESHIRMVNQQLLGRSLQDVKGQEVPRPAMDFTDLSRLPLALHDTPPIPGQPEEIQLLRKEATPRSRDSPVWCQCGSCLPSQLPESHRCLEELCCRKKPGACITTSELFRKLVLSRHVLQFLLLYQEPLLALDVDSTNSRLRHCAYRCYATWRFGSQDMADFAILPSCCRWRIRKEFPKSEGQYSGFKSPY

P2X7 [2] = target: T1, P2X7; test: Ca2+ flux (FLIPR) in 1321N1 cells expressing recombinant human P2X7 channel; type: cell-based; conditions: 250 μM BzATP;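 note: Calcium-4 dye-loaded cells exposed to compound for 30 min before agonist addition, fluorescence change read 180 s after agonist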
Description: Cells were seeded at a density of 25000 cells/well (96-well clear bottom black walled plates) in 100 μl volume/well. On the day of the experiment, cell plates were washed with assay buffer, containing (in mM): 130 NaCl, 2 KCl, 1 CaCl2, 1 MgCl2, 10 HEPES, 5 glucose; pH 7.40 and 300 mOs. After the wash, cells were loaded with the Calcium-4 dye (Molecular Device) and incubated in the dark for 60 minutes. Test compounds were prepared at 250× the test concentration in neat DMSO. Intermediate 96-well compound plates were prepared by transferring 1.2 μL of the compound into 300 μL of assay buffer. A further 3× dilution occurred when transferring 50 μL/well of the compound plate to 100 μL/well in the cell plate. Cells were incubated with test compounds and dye for 30 minutes. […] The fluorescence change was measured 180 seconds after adding the agonist.

rat P2X7 = rat P2X7 (Rattus norvegicus (Rat), UniProt Q64663); test: Ca2+ flux (FLIPR) in 1321N1 cells expressing recombinant rat P2X7 channel; type: cell-based; conditions: 250 μM BzATP;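 note: Calcium-4 dye fluorescence change read 180 s after agonist addition, following 30 min cell preincubation with test compound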
rat P2X7, sequence (Q64663 whole entry): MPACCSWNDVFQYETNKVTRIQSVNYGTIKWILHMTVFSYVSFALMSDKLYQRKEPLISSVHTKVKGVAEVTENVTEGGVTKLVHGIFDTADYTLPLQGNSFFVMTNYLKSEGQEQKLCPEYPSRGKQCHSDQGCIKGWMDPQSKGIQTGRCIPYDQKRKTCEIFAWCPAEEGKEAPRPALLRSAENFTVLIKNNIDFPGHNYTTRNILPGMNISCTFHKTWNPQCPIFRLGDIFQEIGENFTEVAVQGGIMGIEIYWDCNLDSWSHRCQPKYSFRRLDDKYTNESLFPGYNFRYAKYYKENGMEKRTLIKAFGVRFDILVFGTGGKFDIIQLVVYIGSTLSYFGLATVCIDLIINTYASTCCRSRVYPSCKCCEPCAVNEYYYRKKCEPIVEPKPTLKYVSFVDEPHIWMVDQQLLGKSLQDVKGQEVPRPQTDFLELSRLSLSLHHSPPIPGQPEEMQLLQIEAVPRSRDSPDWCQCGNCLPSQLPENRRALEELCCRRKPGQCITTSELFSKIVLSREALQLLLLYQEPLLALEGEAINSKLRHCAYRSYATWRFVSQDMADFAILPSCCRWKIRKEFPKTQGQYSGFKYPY

P2X7 [3] = target: T1, P2X7; test: Radioligand binding, tritiated A-804598, human P2X7-1321N1 cell membranes; conditions: 1 hour at 4° C.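 Note: ki obtained from the binding IC50 after correction for tracer concentration and tracer affinity.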
Description: On the day of the experiment, cell membrane preparations were made according to standard published methods. […] The assay was terminated by filtration (GF/B filters pre-soaked with 0.3% PEI) and washed with washing buffer (Tris-HCl 50 mM). The IC50 generated in the binding assay was corrected for tracer concentration and affinity of the tracer to derive at the affinity (Ki) of the test compounds.

PBMC 10 μM (% control) (P2X7 [1])	IC50 (P2X7 [2]) [nM]	IC50 (rat P2X7) [nM]	Ki (P2X7 [3]) [nM]	PBMC 1 μM (% control) (P2X7 [1])	SMILES
11.6	124	9110	144		Cc1cncc(-n2nnc3c2CCN(C(=O)c2cccc(C(F)(F)F)c2Cl)C3C)n1 (stereo not shown) [Example 251, (2-Chloro-3-(trifluoromethyl)phenyl)(4-methyl-1-(6-methylpyrazin-2-yl)-6,7-dihydro-1H-[1,2,3]triazolo[4,5-c]pyridin-5(4H)-yl)methanone]
8.6	931	2370	501		CC1c2ncn(-c3ccc(F)cc3)c2CCN1C(=O)c1cccc(C(F)(F)F)c1F (stereo not shown) [Example 20, (2-Fluoro-3-(trifluoromethyl)phenyl)(1-(4-fluorophenyl)-4-methyl-6,7-dihydro-1H-imidazo[4,5-c]pyridin-5(4H)-yl)methanone]
3.6	2.5	179	14.8		O=C(c1cccc(C(F)(F)F)c1Cl)N1CCc2c(-c3cccnc3)n[nH]c2C1 [Example 96, 6-{[2-Chloro-3-(trifluoromethyl)phenyl]carbonyl}-3-pyridin-3-yl-4,5,6,7-tetrahydro-2H-pyrazolo[3,4-c]pyridine]
−3.7	46.5	2570	25.1		O=C(c1cccc(Cl)c1Cl)N1CCc2c(ncn2-c2ccccn2)C1 [Example 4, (2,3-Dichlorophenyl)(1-(pyridin-2-yl)-6,7-dihydro-1H-imidazo[4,5-c]pyridin-5(4H)-yl)methanone]
	4.2	169	29.5	−5.7	CC1c2nnn(-c3cnccn3)c2C=CN1C(=O)c1cccc(C(F)(F)F)c1Cl (stereo not shown) [Example 72, 5-{[2-Chloro-3-(trifluoromethyl)phenyl]carbonyl}-4-methyl-1-pyrazin-2-yl-4,5-dihydro-1H-[1,2,3]triazolo[4,5-c]pyridine]
	111	3270	74.1	9.7	CCOC(=O)C1c2ncn(-c3ccccn3)c2CCN1C(=O)c1cccc(Cl)c1Cl (stereo not shown) [Example 25, Ethyl 5-(2,3-dichlorobenzoyl)-1-(pyridin-2-yl)-4,5,6,7-tetrahydro-1H-imidazo[4,5-c]pyridine-4-carboxylate]
	7.9	251	39.8	9.0	O=C(c1cccc(C(F)(F)F)c1Cl)N1CCc2c(-c3ccccn3)n[nH]c2C1 [Example 93, 6-{[2-Chloro-3-(trifluoromethyl)phenyl]carbonyl}-3-pyridin-2-yl-4,5,6,7-tetrahydro-2H-pyrazolo[3,4-c]pyridine. TFA salt]
−3.1	230	6530	174		CC1CN(C(=O)c2cccc(C(F)(F)F)c2Cl)Cc2nnn(-c3ccc(F)cc3)c21 (stereo not shown) [Example 246, (2-Chloro-3-(trifluoromethyl)phenyl)(1-(4-fluorophenyl)-7-methyl-6,7-dihydro-1H-[1,2,3]triazolo[4,5-c]pyridin-5(4H)-yl)methanone]
−2.1	7.6	83.2	18.2		CC1c2nnn(-c3cnccn3)c2CCN1C(=O)c1cccc(C(F)(F)F)c1F (stereo not shown) [Example 273, (2-fluoro-3-(trifluoromethyl)phenyl)(4-methyl-1-(pyrazin-2-yl)-6,7-dihydro-1H-[1,2,3]triazolo[4,5-c]pyridin-5(4H)-yl)methanone]
−3.4	81.5	60.4	25.1		CC1Cc2c(nnn2-c2ccc(F)cc2)C(C)N1C(=O)c1cccc(Cl)c1Cl (stereo not shown) [Example 242, (2,3-Dichlorophenyl)(1-(4-fluorophenyl)-4,6-dimethyl-6,7-dihydro-1H-[1,2,3]triazolo[4,5-c]pyridin-5(4H)-yl)methanone]
